Assay results: patent EP0147851B1, “Water soluble forms of polyene antibiotics, and process for preparing them” (priority 1983, dated 1985)
Read-outs that look alike come from different tables or passages of the source.

Experiments:
[1] = tested on: aus menschlichem Blut hergestellten Suspensionen roter Blutkörperchen
Description: Dyn. 6, 408-414 [1983]) untersucht. Die Ergebnisse werden in Form der zu 50 %iger Hämolyse gehörenden Konzentrationen (EH₅₀) angegeben. […] Auch die hämolytische Wirkung einer der im Komplex gebundenen γ-CD-Menge entsprechenden Menge γ-Cyclodextrin wurde untersucht.

Candida albicans = assay: Biological potency of Nystatin, agar diffusion method; type: cell-based
Description: Die vorhergehenden Beispiele beweisen, daß die Polyenantibiotika mit γ-Cyclodextrin Einschlußkomplexe bilden und dadurch ihre Stabilität und Wasserlöslichkeit bedeutend steigt. Entscheidend ist jedoch, ob auch die antifungale Wirkung geblieben ist. Um diese Frage zu beantworten, wurde die antifungale Wirkung der auf unterschiedliche Weise hergestellten Komplexe sowohl sofort nach der Herstellung wie auch nach Lagerung unter Bedingungen, unter denen der nicht durch Komplexbildung geschützte Wirkstoff bereits beträchtliche Aktivitätseinbußen erleidet, untersucht. • a) Flavofungin-γ-Cyclodextrin-Komplex Die antifungale Wirkung der wäßrigen Lösung dieses Komplexes wurde an 6 Spaltpilzen und 13 Fadenpilzen untersucht. Die Ergebnisse sind in der Tabelle 7 zusammengefaßt. Auf Flavofungin bezogen war die minimale Hemmkonzentration in jedem Falle 10-25 µg/ml, was der Wirksamkeit des nicht komplexgebundenen Wirkstoffes entspricht. Es ist besonders bemerkenswert, daß die Substanz auch gegen phytopathogene Fusarien wirkt, d.h. eine Anwendung gegen pilzliche Pflanzenschädlinge begründet ist. Der komplexgebundene Wirkstoff wirkt in der gleichen Konzentration wie Flavofungin. Die Untersuchungenwurden mit der Agardiffusionsmethode vorgenommen. Der Komplex hat den Vorteil, daß zum Bereiten der Lösungen keine organischen Lösungsmittel (DMF bzw. DMSO) erforderlich sind. […]

[2] = per os; cited from earlier work
[3] = Blood level after subcutaneous administration (UV spectrum of serum); type: in vivo, CFY-Ratten; settings: subcutan, 200 mg/kg
Description: • a) Die Resorption von Nystatin aus per os verabreichtem Nystatin-γ-CD-Komplex Die Resorption des Wirkstoffes wurde an Mäusen, an einem durch intravenöse Applikation einer Suspension von Candida albicans hervorgerufenen Sepsismodell untersucht. Die Sepsis verursachte innerhalb von 2-3 Tagen 100 %ige Mortalität. Den Versuchstieren wurde per os gemäß Beispiel 3 hergestellte, 8 % Nystatin enthaltende Komplex verabreicht. In einem Parallelversuch wurde Nystatin intravenös appliziert. Für beide Gruppen wurde die auf die unbehandelte Kontrolle bezogene Verlängerung der Überlebensdauer ermittelt. [formula] Wenn man diejenigen in Form des Komplexes per os verabreichten Nystatindosen mit denjenigen i.v. applizierten Nystatindosen vergleicht, die eine etwa gleiche Verlängerung der Überlebensdauer bewirkten (Tabelle 9, letzte Spalte),so läßt sich errechnen, daß aus dem Komplex durchschnittlich 6,2 % des Wirkstoffes in die Blutbahn gelangten. Bei den höchsten Dosen (i.v. 1,56 mg/kg, p.o. 25 mg/kg) ist das Zurückfallen der Überlebensdauer bereits auf die schwache Toxizität des Nystatins zurückzuführen. • b) Die Resorption von Nystatin aus subcutan appliziertem Nystatin-γ-CD-Komplex Weibliche CFY-Ratten eines durchschnittlichen Gewichtes von 180 g wurden mit Nystatin, mit Nystatin-γ-CD-Komplex (Wirkstoffgehalt9 8 %) beziehungsweise mit γ-CD behandelt. […]

C[C@@H]1[C@H](O)[C@@H](C)/C=C/C=C/CC/C=C/C=C/C=C/C=C/C(O[C@H]2O[C@H](C)[C@@H](O)[C@H](N)[C@@H]2O)CC2O[C@](O)(CC(O)C(O)CCC(O)CC(O)CC(O)CC(=O)O[C@H]1C)CC(O)C2C(=O)O (stereo partly drawn) [Nystatin]
Hämolyse ([1]; 70 µg/ml Nystatin): 70% | EH₅₀ (concentration for 50 % haemolysis) ([1]; complexes berechnet als Wirkstoff): 57 µg/mL | biologische Aktivität (Candida albicans): 5033 E/mg | biologische Aktivität after treatment without γ-CD (Candida albicans; base substance treated as in Beispiel 5 (40 °C, 24 Stunden in water, lyophilised) without γ-CD): wesentlich schlechter | Blutspiegel [2]: überhaupt nicht meßbar | Blutspiegel [3]: nichts nachzuweisen
